Laboratory results taken from ChEMBL document CHEMBL1145548, “Selective plasma protein binding of antimalarial drugs to alpha1-acid glycoprotein” (Bioorg Med Chem, 2008).

What was measured:
[1] = molecular target: T1, Albumin (Homo sapiens, UniProt P02768); assay: Binding affinity to human serum albumin by circular dichroism and UV/VIS spectroscopic method; assay type: ADME; conditions: isolated protein
[2] = molecular target: T1, Albumin; assay: Binding affinity to human serum albumin on sepharose column by affinity chromatography; assay type: ADME; conditions: isolated protein
[3] = molecular target: Alpha-1-acid glycoprotein 1 (Homo sapiens, UniProt P02763); assay: Binding affinity to human ORM1 at 37 degC by induced circular dichroism method
[4] = species: Homo sapiens; assay: Displacement of quinaldine red from human AAG by fluorescence method
[5] = species: Homo sapiens; assay: Binding affinity to human AAG at 37 degC by induced circular dichroism method
[6] = molecular target: Alpha-1-acid glycoprotein 2 (Homo sapiens, UniProt P19652); assay: Binding affinity to human ORM2 at 37 degC by induced circular dichroism method
[7] = species: Homo sapiens; assay: Binding affinity to human AAG at 23 degC by induced circular dichroism method
[8] = molecular target: T1, Albumin; assay: Binding affinity to human serum albumin by fluorescence emission spectra; assay type: ADME; conditions: isolated protein
[9] = species: Homo sapiens; assay: Binding affinity to human AAG by fluorescence emission spectra

T1 sequence (P02768 whole entry): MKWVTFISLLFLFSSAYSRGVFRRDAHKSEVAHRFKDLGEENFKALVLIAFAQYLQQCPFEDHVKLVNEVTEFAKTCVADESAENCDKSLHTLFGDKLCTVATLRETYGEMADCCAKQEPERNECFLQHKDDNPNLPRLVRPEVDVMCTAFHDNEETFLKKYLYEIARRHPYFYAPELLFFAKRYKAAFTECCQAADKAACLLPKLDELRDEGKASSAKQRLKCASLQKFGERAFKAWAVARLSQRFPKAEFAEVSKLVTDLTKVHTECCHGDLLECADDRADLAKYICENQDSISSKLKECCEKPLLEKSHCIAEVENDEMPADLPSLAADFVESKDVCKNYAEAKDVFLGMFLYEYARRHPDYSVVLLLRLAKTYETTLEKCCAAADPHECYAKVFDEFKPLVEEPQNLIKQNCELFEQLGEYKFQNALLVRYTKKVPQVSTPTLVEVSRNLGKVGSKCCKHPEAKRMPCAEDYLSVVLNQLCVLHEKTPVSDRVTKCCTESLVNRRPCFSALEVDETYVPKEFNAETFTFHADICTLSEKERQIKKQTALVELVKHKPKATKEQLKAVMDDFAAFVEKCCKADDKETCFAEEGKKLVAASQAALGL
Chain of Alpha-1-acid glycoprotein 1 (P02763 whole entry): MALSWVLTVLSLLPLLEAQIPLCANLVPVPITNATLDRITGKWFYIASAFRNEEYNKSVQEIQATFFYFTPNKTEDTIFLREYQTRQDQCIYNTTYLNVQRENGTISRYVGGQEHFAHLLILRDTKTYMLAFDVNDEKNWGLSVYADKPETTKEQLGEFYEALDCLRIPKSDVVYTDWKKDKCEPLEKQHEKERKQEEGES
Chain of Alpha-1-acid glycoprotein 2 (P19652 whole entry): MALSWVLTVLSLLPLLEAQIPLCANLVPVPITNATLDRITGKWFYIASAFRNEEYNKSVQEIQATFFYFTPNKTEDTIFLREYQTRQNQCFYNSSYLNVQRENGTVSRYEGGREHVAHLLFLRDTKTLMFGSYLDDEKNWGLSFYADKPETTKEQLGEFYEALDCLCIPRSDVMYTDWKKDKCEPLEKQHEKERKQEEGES

Compound | Ka [2] | Ka [4] | also measured
CCN(CC)Cc1cc(Nc2ccnc3cc(Cl)ccc23)ccc1O.Cl | 2 10^4/M | – | Ka [1]: 6200 M⁻¹
CC(=O)O[C@H]1N=C(c2ccccc2Cl)c2cc(Cl)ccc2NC1=O | 2 10^4/M | – | –
CC(=O)O[C@@H]1N=C(c2ccccc2)c2cc(Cl)ccc2NC1=O | 8 10^4/M | – | –
CCN(CC)Cc1cc(Nc2ccnc3cc(Cl)ccc23)ccc1O.Cl.Cl.Cl | – | – | Ka [3]: 5.8 10^4/M
CC(=O)O[C@@H]1N=C(c2ccccc2Cl)c2cc(Cl)ccc2NC1=O | 4 10^4/M | – | –
CC(=O)O[C@H]1N=C(c2ccccc2)c2cc(Cl)ccc2NC1=O | 1 10^4/M | – | –
CC#C[C@]1(O)CC[C@H]2[C@@H]3CCC4=CC(=O)CCC4=C3[C@@H](c3ccc(N(C)C)cc3)C[C@@]21C | – | 4 10^6/M | –
CCN(CC)CCCC(C)Nc1c2ccc(Cl)cc2nc2ccc(OC)cc12 (stereo not given) | – | – | Ka [5]: 2.3 10^5/M
CCN(CC)Cc1cc(Nc2ccnc3cc(Cl)ccc23)ccc1O | – | 1.1 10^5/M | Ka [5]: 4.8 10^4/M
CN(C)CCCN1c2ccccc2Sc2ccc(Cl)cc21 | – | 8.4 10^5/M | –
COc1cc(NC(C)CCCN)c2ncccc2c1 (stereo not given) | – | 4.2 10^5/M | Ka [5]: 4.1 10^5/M
CC(C)NCC(O)COc1cccc2ccccc12 (racemic) | – | 1.5 10^5/M | –
CCN(CC)CCCC(C)Nc1ccnc2cc(Cl)ccc12 (stereo not given) [CHLOROQUINE] | 2 10^3/M | 0.3 10^5/M | –
OC(c1cc(C(F)(F)F)nc2c(C(F)(F)F)cccc12)C1CCCCN1 (stereo not given) [MEFLOQUINE] | 8 10^4/M | 8.7 10^5/M | –
COc1cc(NC(C)CCCN)c2ncccc2c1.O=P(O)(O)O.O=P(O)(O)O (stereo not given) [PRIMAQUINE PHOSPHATE] | – | – | Ka [3]: 8 10^5/M
COc1cc(NC(C)CCCN)c2ncccc2c1 (stereo not given) [PRIMAQUINE] | 7 10^3/M | – | –
CCN(CC)CCCC(C)Nc1c2ccc(Cl)cc2nc2ccc(OC)cc12.Cl.Cl (stereo not given) [QUINACRINE DIHYDROCHLORIDE] | – | – | Ka [6]: 3.7 10^5/M
CCN(CC)CCCC(C)Nc1c2ccc(Cl)cc2nc2ccc(OC)cc12 (stereo not given) [QUINACRINE] | 7 10^3/M | – | –
COc1cc(C)c2c(Oc3cccc(C(F)(F)F)c3)c(OC)cc(NC(C)CCCN)c2n1 (stereo not given) [TAFENOQUINE] | 3 10^5/M | 1.8 10^6/M | Ka [1]: 24000 M⁻¹; Ka [7]: 1.1 10^6/M; Ka [8]: 3 10^5/M; Ka [5]: 3.3 10^5/M; Ka [9]: 1.6 10^6/M
